Measured values: ChEMBL document CHEMBL3232950, “Quinolone-benzylpiperidine derivatives as novel acetylcholinesterase inhibitor and antioxidant hybrids for Alzheimer disease” (Bioorg Med Chem, 2014)

Legend:
[1] = Antioxidant activity assessed as superoxide anion radical scavenging activity at 100 uM by non-enzymatic phenazine methosulfate NADH-system; type: functional
[2] = molecular target: Cholinesterase (Equus caballus, UniProt P81908)
Description: Inhibition of BuChE in equine serum using butyrylthiocholine iodide as substrate preincubated with enzyme for 10 mins prior to substrate challenge measured after 15 mins by Ellman's method

[3] = molecular target: Acetylcholinesterase (Electrophorus electricus, UniProt O42275)
Description: Inhibition of electric eel AChE using acetylthiocholine iodide as substrate preincubated with enzyme for 10 mins prior to substrate challenge measured after 15 mins by Ellman's method

[4] = system: Radical scavenging activity
Description: Antioxidant activity assessed as DPPH radical scavenging activity after 2 hrs by absorbance analysis

[5] = molecular target: Acetylcholinesterase (Homo sapiens, UniProt P22303); experiment: Inhibition of AChE in human erythrocytes using acetylthiocholine iodide as substrate preincubated with enzyme for 10 mins prior to substrate challenge measured after 15 mins by Ellman's method; type: cell-based
Chain of Acetylcholinesterase (Homo sapiens, UniProt P22303) (P22303 whole entry): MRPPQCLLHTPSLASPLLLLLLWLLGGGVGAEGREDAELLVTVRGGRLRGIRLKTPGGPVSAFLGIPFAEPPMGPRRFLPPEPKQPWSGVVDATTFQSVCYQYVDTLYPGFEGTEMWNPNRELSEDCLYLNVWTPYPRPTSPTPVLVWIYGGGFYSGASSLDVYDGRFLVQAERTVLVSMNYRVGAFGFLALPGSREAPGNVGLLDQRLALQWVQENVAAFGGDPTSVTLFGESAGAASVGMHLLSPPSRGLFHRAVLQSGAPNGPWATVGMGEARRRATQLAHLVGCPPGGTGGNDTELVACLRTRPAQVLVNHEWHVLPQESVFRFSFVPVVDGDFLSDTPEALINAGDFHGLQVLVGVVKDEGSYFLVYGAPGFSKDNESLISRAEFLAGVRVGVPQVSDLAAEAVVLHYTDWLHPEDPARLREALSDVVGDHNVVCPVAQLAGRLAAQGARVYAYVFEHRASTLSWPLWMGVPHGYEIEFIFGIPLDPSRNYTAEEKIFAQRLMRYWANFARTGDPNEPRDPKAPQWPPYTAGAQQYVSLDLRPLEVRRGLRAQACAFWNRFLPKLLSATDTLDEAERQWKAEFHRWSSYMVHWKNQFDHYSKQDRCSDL

Chain of Cholinesterase (P81908 whole entry): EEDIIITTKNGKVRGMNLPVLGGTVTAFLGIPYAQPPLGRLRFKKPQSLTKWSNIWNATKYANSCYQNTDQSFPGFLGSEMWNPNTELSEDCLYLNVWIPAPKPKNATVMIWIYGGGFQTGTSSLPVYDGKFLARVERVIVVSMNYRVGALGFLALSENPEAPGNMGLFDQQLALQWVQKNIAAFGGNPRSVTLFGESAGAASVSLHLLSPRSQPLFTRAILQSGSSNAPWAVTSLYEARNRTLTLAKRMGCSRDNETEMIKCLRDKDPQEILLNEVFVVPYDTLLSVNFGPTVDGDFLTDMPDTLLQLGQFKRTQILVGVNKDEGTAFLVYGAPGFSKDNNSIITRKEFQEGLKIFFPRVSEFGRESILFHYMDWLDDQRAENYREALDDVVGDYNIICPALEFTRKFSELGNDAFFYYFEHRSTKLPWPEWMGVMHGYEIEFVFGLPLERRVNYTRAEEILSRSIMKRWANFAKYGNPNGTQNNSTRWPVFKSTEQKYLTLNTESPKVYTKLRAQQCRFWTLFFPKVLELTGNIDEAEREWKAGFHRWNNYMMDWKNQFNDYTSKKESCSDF
Chain of Acetylcholinesterase (Electrophorus electricus, UniProt O42275) (O42275 whole entry): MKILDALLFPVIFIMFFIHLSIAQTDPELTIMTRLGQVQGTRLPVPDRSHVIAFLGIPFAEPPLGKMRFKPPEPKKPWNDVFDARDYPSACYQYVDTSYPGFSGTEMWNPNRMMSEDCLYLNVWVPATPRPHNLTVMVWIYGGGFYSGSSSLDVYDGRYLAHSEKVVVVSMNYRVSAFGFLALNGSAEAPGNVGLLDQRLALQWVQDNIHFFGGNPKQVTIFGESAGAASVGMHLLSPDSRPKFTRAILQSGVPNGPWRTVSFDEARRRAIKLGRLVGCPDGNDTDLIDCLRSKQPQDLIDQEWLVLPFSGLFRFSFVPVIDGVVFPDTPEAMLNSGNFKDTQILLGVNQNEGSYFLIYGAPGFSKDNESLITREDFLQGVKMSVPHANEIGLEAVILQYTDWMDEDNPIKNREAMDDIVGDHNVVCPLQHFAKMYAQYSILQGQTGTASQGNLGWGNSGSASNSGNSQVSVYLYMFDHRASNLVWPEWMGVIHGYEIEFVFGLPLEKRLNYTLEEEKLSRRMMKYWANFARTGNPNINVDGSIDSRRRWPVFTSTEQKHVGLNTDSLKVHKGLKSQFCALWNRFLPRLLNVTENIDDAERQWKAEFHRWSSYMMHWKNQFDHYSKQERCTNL

SMILES | Activity [1] | IC50 [2] | IC50 [3] | EC50 [4] | IC50 [5]
COc1cc(Cn2c(=O)c(C(=O)NCC3CCN(Cc4ccccc4)CC3)c(O)c3ccccc32)cc(OC)c1O | 33% | 0.33 µM | 0.56 µM | 90.5 µM | –
COc1cc(/C=C/C(=O)CC(=O)/C=C/c2ccc(O)c(OC)c2)ccc1O [CURCUMIN] | – | – | – | 26.6 µM | –
O=C(NCC1CCN(Cc2ccccc2)CC1)c1c(O)c2ccccc2[nH]c1=O | – | 6.02 µM | 1.41 µM | – | –
COc1cc2c(O)c(C(=O)NCC3CCN(Cc4ccccc4)CC3)c(=O)n(C)c2cc1OC | – | > 10 µM | 2.93 µM | – | –
O=c1c(O)c(-c2ccc(O)c(O)c2)oc2cc(O)cc(O)c12 [QUERCETIN] | – | – | – | 10.3 µM | –
Cn1c(=O)c(C(=O)NC2CCN(Cc3ccccc3)CC2)c(O)c2ccccc21 | – | > 10 µM | 1.52 µM | – | –
Cn1c(=O)c(C(=O)NCC2CCN(Cc3ccccc3)CC2)c(O)c2cc(O)c(O)cc21 | 40% | > 10 µM | 2.02 µM | 21.7 µM | –
COc1cc2c(O)c(C(=O)NCC3CCN(Cc4ccccc4)CC3)c(=O)n(Cc3ccccc3)c2cc1OC | – | > 60 µM | 0.27 µM | – | –
Cc1c(C(=O)NCC2CCN(Cc3ccccc3)CC2)c(=O)[nH]c2ccccc12 | – | > 10 µM | 0.47 µM | – | –
O=C(NC1CCN(Cc2ccccc2)CC1)c1c(-c2ccccc2)c2ccccc2[nH]c1=O | – | > 10 µM | > 10 µM | – | –
Cn1c(=O)c(C(=O)NCC2CCN(Cc3ccccc3)CC2)c(O)c2ccccc21 | – | 4.26 µM | 0.37 µM | – | –
O=C(NCC1CCN(Cc2ccccc2)CC1)c1c(O)c2cc(O)c(O)cc2[nH]c1=O | – | > 10 µM | 0.48 µM | 12.2 µM | 0.98 µM
O=C(NCC1CCN(Cc2ccccc2)CC1)c1c(O)c2cc(O)c(O)cc2n(Cc2ccccc2)c1=O | – | > 10 µM | > 10 µM | 20.8 µM | –
O=C(NC1CCN(Cc2ccccc2)CC1)c1c(O)c2ccccc2n(Cc2ccccc2)c1=O | – | > 10 µM | 0.39 µM | – | –
O=C(NCC1CCN(Cc2ccccc2)CC1)c1c(O)c2ccccc2n(Cc2ccccc2)c1=O | – | > 10 µM | 0.49 µM | – | –
O=C(NCC1CCN(Cc2ccccc2)CC1)c1c(O)c2ccccc2n(Cc2cc(O)c(O)c(O)c2)c1=O | – | > 10 µM | 3.89 µM | 107 µM | –
Cc1c(C(=O)NC2CCN(Cc3ccccc3)CC2)c(=O)[nH]c2ccccc12 | – | > 10 µM | 2.46 µM | – | –
O=C(NC1CCN(Cc2ccccc2)CC1)c1c(O)c2ccccc2[nH]c1=O | – | > 10 µM | 2.27 µM | – | –
COc1cc2[nH]c(=O)c(C(=O)NCC3CCN(Cc4ccccc4)CC3)c(O)c2cc1OC | – | > 60 µM | 0.11 µM | – | 0.23 µM
Cn1c(=O)c(C(=O)NCC2CCN(Cc3ccccc3)CC2)c(N)c2ccccc21 | – | 1.14 µM | 0.38 µM | – | –
